{"source": "paper PMC10244169", "about": "“Psychedelics promote plasticity by directly binding to BDNF receptor TrkB” (Nature Neuroscience, 2023)", "key": {"[1]": {"molecular_target": "T1, TrkB V437A (Rattus norvegicus, UniProt Q63604, V437A)", "T1 construct": "expressed in transfected cells; host or cells: HEK293T", "T1 sequence (Q63604 32-821 V437A)": "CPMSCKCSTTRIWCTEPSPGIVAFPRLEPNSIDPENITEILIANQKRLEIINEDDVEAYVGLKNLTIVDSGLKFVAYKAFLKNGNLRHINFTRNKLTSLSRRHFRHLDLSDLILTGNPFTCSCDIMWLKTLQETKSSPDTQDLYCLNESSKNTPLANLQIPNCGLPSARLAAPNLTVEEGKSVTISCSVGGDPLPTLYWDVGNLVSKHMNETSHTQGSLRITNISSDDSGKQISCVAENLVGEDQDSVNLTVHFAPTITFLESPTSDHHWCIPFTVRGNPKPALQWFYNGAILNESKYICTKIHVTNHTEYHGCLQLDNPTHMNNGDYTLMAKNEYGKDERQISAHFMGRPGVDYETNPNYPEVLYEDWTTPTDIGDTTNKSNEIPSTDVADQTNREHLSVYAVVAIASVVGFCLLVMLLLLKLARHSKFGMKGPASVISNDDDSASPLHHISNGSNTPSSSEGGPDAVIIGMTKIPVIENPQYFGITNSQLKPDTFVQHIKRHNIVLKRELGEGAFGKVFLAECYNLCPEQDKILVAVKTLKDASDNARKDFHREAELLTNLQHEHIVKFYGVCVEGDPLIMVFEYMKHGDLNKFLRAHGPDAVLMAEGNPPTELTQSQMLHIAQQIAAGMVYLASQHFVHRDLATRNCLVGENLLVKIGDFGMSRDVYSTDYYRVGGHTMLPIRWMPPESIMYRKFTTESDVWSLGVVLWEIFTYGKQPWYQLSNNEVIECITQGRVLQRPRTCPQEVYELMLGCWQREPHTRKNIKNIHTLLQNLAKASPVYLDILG", "test": "^3H-LSD saturation binding, TrkB mutant", "method": "(§1) Binding assays were performed as previously described with minor modifications. […] Samples from mouse embryo (E18) brains were also lysed, vortexed, sonicated and centrifuged for binding assays. Plates were then washed with PBS. […] For the competition binding assays with biotinylated R,R-HNK, the amino-biotinylation of R,R-HNK was performed using a commercial kit (Thermo Scientific, EZ-Link NHS-PEG4 Biotinylation Kit, 21455) and the reaction monitored by MS. A mixture of biotinylated R,R-HNK (10 µM) and unlabeled compounds (1 pM to 10 µM) in PBS was added to the 96-well plates containing the immunoprecipitated TrkB and incubated for 1 h at room temperature. […] Luminescence was determined via streptavidin conjugated with horseradish peroxidase (HRP; Thermo Fisher Scientific, 21126; 1:5,000, 1 h at room temperature) in reaction with the Pierce ECL substrate (Thermo Fisher Scientific, 32106). Luminescence from blank wells that contained all reagents but the sample lysates was used to determine nonspecific binding. To obtain the binding curves, results from binding assays were fitted to the equation of specific binding with Hill slope from GraphPad Prism 9.2. To calculate koff values, results were fitted to the equation of dissociation of one phase exponential decay from GraphPad Prism 9.2."}, "[2]": {"molecular_target": "T2, TrkB Y433F (Rattus norvegicus, UniProt Q63604, Y433F)", "T2 construct": "expressed in transfected cells; host or cells: HEK293T", "T2 sequence (Q63604 32-821 Y433F)": "as the sequence (Q63604 32-821 V437A) above, with Y402F, A406V counted along it", "test": "^3H-LSD saturation binding, TrkB mutant", "method": "as §1"}, "[3]": {"molecular_target": "T3, TrkB S440A (Rattus norvegicus, UniProt Q63604, S440A)", "T3 construct": "expressed in transfected cells; host or cells: HEK293T", "T3 sequence (Q63604 32-821 S440A)": "as the sequence (Q63604 32-821 V437A) above, with A406V, S409A counted along it", "test": "^3H-LSD saturation binding, TrkB mutant"}, "[4]": {"tested_on": "TrkB cell surface retention", "test": "Cell surface retention of TrkB in cortical neurons", "format": "cell-based, rat", "method": "The cell surface retention of TrkB was measured as previously described[11],[82]. […] For antagonist experiments, cultures were pretreated with M100907 (100 nM) for 10 min and remained present for the rest of the experiment. After washing with PBS and incubating for 1 h with blocking buffer (5% nonfat dry milk and 5% BSA) at room temperature, plates were incubated with goat anti-TrkB antibody (R&D Systems, AF1494; 1:1,000, overnight, 4 °C). After further PBS washes, plates were incubated with HRP-conjugated […] antibody (Bio-Rad, 170–5046; 1:5,000, 1 h, room temperature). Finally, wells were washed with PBS and the chemiluminescent signal was read after brief incubation with Pierce ECL substrate (Thermo Fisher Scientific, 32106)."}, "[5]": {"tested_on": "dentate granule cells (DGCs)", "test": "Long-term survival of newborn dentate granule cells (BrdU)", "format": "in vivo, mouse", "details": "for Mean, figure 7b (survival of newborn dentate granule cells): LSD group; for e6h group mean: LSD", "method": "WT and Y433F^+/− male mice were administered four doses of 5-bromo-2′-deoxyuridine (BrdU, 75 mg kg^−1 per injection, every 2 h) intraperitoneally to tag newborn neurons in the hippocampus and returned to their home cage. […] Four weeks later, animals were intracardially perfused with PBS followed by 4% PFA. Brains were dissected and postfixed with 4% PFA (overnight, 4 °C). Next, brains were transferred to 30% sucrose (0.1% PBS) solution and stored at 4 °C for 48–72 h. Brains were moved into disposable vinyl specimen molds (Sakura, Tissue-Tek Cryomold standard) and covered in Tissue-Tek O.C.T. Compound (Sakura). Trays were placed on dry ice and brains covered once more in TissueTec to ensure full coverage. Once frozen, samples were stored at −80 °C. Brains were sliced coronally at 40 µm thickness, collecting every sixth slice. Slices were stored in cryoprotectant fluid (30% sucrose, 30% ethylene glycol, 1% PVP-40, and 0.05 M PB) in −20 °C until staining. Every third hippocampal slice containing dentate gyrus (DG) was collected for washing with 0.1 M PBS and staining. BrdU immunofluorescence was conducted similarly as previously reported in the literature[28] with modifications. Hippocampal slices were incubated in 2.0 M HCl (30 min, 37 °C) and washed with PBS. Slices were then incubated in 0.1 M borate buffer (pH 8.0) at room temperature for 10 min, followed by further washes in PBS and 1 h incubation in 0.1% PBS blocking buffer (0.5% Triton X-100, 5% normal donkey serum, 5% normal goat serum, 1% BSA and 0.1% gelatin). Sections were incubated with primary antibodies rat anti-BrdU (Abcam, ab6326; 1:200) and mouse anti-NeuN (Millipore, MAB377; 1:1,000) for 48 h at 4 °C with gentle shaking. Slices were then washed with PBS, followed by incubation with secondary antibodies Alexa Fluor 488 donkey anti-rat (Invitrogen, A21208; 1:300) and Alexa Fluor 568 goat-anti-mouse (Invitrogen, A11004; 1:500) for 2 h at room temperature and protected from light. Slices were washed in PBS and PB before mounting with Dako fluorescence mounting medium (Agilent, S302380-2) and slides stored at 4 °C until imaging. A total of eight slices containing both hemispheres and covering the whole DG (every third slice) were imaged with a Zeiss LSM 710 confocal microscope. Fifteen optical sections with a Z-step of 2 µm were acquired per slice with a PlanApochromat 10×/0.45 M27. BrdU^+ and BrdU^+/NeuN^+ cells in the DG were counted manually by experimenters blinded to treatment and genotype using ZEN Blue 3.2. Similarly to Ma et al.[28], we estimated the number of mature neurons (BrdU^+/NeuN^+) in the DG of both hemispheres by multiplying by 6 the total count derived from every third hippocampal slice. The percentage of mature neurons over total BrdU^+ cells in the DG was also calculated."}, "[6]": {"tested_on": "primary visual cortex", "test": "Ocular dominance plasticity after monocular deprivation", "format": "in vivo, mouse", "details": "ext fig 7b", "experimental": "Female and male mice were 17 weeks old at the time of monocular deprivation, since the physiological critical period in the binocular region of the visual cortex is closed by then[85]. […] Briefly, mice were injected with an anesthetic mixture containing 0.05 mg kg^−1 fentanyl (Hameln), 5 mg kg^−1 midazolam (Hameln) and 0.5 mg kg^−1 medetomidine (Orion Pharma) diluted in saline. Eyes were protected from drying with eye-protective gel (Alcon), and the head was shaved and fixed in a stereotaxic frame with a heating pad maintained at 37 °C. A mixture of lidocaine and adrenaline (Orion Pharma) was applied locally on the head, and the scalp above the visual cortex was cut. The periosteum was removed gently, and the skull was rapidly cleaned from fat with acetone. The surface of the skull was covered with a thin layer of cyanoacrylate glue (Henkel, Loctite 401), followed by two layers of acryl, obtained by mixing colorless acrylic powder (EUBECOS) with liquid methacrylate (Densply). […] The signal was recorded from one eye at a time, with the other eye covered by a patch. […] The OD score as (C − I)/(C + I) was calculated, and the ocular dominance index (ODI) was determined as the mean of the OD score for all responsive pixels, as described by Cang et al.[89]."}, "[7]": {"tested_on": "Bdnf mRNA", "test": "RT–qPCR of Bdnf mRNA in cortical neurons", "details": "for Bdnf mRNA, group mean (5f): LSD 100 nM"}}, "data": [{"smiles": "CCN(CC)C(=O)C1C=C2c3cccc4[nH]cc(c34)CC2N(C)C1", "note": "(stereo not drawn) [LSD, lysergic acid diethylamide]", "values": [{"measurement": "Bmax (best-fit, 1a)", "setting": "[1]", "value": 88.07}, {"measurement": "h (best-fit, 1a)", "setting": "[1]", "value": 1.581}, {"measurement": "Kd", "setting": "[1]; Kd (best-fit, 1a), unit inferred", "value": 0.0259, "unit": "µM"}, {"measurement": "Kd", "setting": "[1]; Kd, ^3H-LSD saturation", "value": "0.0259 ± 0.0106", "unit": "µM"}, {"measurement": "Kd", "setting": "[2]; Kd (best-fit, 1a), Y433F, unit inferred", "value": 0.0246, "unit": "µM"}, {"measurement": "Kd", "setting": "[2]; Kd, ^3H-LSD saturation, Y433F", "value": "0.0246 ± 0.00468", "unit": "µM"}, {"measurement": "Bmax (best-fit, 1a)", "setting": "[2]; Y433F", "value": 91.95}, {"measurement": "h (best-fit, 1a)", "setting": "[2]; Y433F", "value": 1.98}, {"measurement": "LSD binding", "setting": "[2]; Y433F point mutation", "value": "impairs LSD binding"}, {"measurement": "Kd", "setting": "[3]", "value": 0.000714, "unit": "µM"}, {"measurement": "Bmax (best-fit, 1a)", "setting": "[3]; S440A", "value": 114.7}, {"measurement": "h (best-fit, 1a)", "setting": "[3]; S440A", "value": 1.945}, {"measurement": "LSD binding", "setting": "[3]; S440A mutation", "value": "did not influence LSD binding"}, {"measurement": "TrkB cell surface retention", "setting": "[4]", "value": "increases TrkB cell surface retention independently of 5-HT2A activation"}, {"measurement": "number of surviving DGCs", "setting": "[5]; WT mice, 4 weeks after single administration (0.1 mg kg^−1 i.p.)", "value": "doubles the number of surviving DGCs"}, {"measurement": "Mean, figure 7b (survival of newborn dentate granule cells)", "setting": "[5]; WT mice", "value": 315.4}, {"measurement": "e6h group mean", "setting": "[5]; WT mice, n=7", "value": 94.67}, {"measurement": "Mean Diff., figure 7b, WT:Saline vs. WT:LSD", "setting": "[5]; WT mice, saline minus LSD, Bonferroni's multiple comparisons test", "value": -197.8}, {"measurement": "e6h Mean Diff. (Saline minus LSD)", "setting": "[5]; WT:Saline vs. WT:LSD, Bonferroni's multiple comparisons test", "value": -4.385}, {"measurement": "Mean, figure 7b (survival of newborn dentate granule cells)", "setting": "[5]; Y433F+/- mice", "value": 150}, {"measurement": "e6h group mean", "setting": "[5]; Y433F+/- mice, n=8", "value": 94.59}, {"measurement": "Mean Diff., figure 7b, Y433F+/-:Saline vs. Y433F+/-:LSD", "setting": "[5]; Y433F+/- mice, saline minus LSD, Bonferroni's multiple comparisons test", "value": 9.6}, {"measurement": "e6h Mean Diff. (Saline minus LSD)", "setting": "[5]; Y433F+/-:Saline vs. Y433F+/-:LSD, Bonferroni's multiple comparisons test", "value": 3.141}, {"measurement": "e6h Predicted (LS) mean of LSD", "setting": "[5]; column mean across WT and Y433F+/- mice", "value": 94.63}, {"measurement": "Predicted (LS) mean of LSD, figure 7b", "setting": "[5]; mean over WT and Y433F+/- mice", "value": 232.7}, {"measurement": "Difference between predicted means (Saline - LSD), figure 7b", "setting": "[5]; means over WT and Y433F+/- mice", "value": -94.11}, {"measurement": "Mean ± SEM of column B (IOS II)", "setting": "[6]; IOS II (second imaging session), n=10 mice", "value": "0.0300 ± 0.02329, n=10"}, {"measurement": "Difference between means (IOS II vs. IOS I)", "setting": "[6]; column B IOS II vs. column A IOS I, unpaired t test", "value": "-0.1640 ± 0.02794"}, {"measurement": "Bdnf mRNA, group mean (5f)", "setting": "[7]; 1 h, fold change, 1 h vehicle 1", "value": 2.028}, {"measurement": "Bdnf mRNA, group mean (5f)", "setting": "[7]; 24 h", "value": 0.7739}, {"measurement": "Bdnf mRNA, group mean (5f)", "setting": "[7]; 72 h", "value": 0.7626}, {"measurement": "Bdnf mRNA", "setting": "[7]; after LSD treatment", "value": "upregulated at 1 h"}, {"measurement": "Bdnf mRNA, predicted (LS) mean over timepoints (5f)", "setting": "[7]; vehicle 1.015", "value": 1.188}]}]}
